{
  "source": "patent US8940334B2",
  "about": "“Pharmaceutical composition of an anthracycline” (priority 2007, dated 2015)",
  "key": {"[1]": {"experiment": "Size and appearance of drug-loaded DC Bead microspheres by image analysis at microscope", "assay_type": "physicochemical", "conditions": "doxorubicin 25 mg drug/ml DC Bead; over loading and elution in PBS", "experimental": "Nemorubicin hydrochloride was diluted at the concentration range of from 0.1 to 2.0 mg drug/ml DC Bead™ that represent clinically applicable doses. In the following examples microspheres of 100-300 μm diameters (DC Bead™) were used. Similar results were obtained when microspheres of 300-500 μm diameters (DC Bead™) were used.\nThe size and spherical shape of microspheres were analyzed after loading with nemorubicin hydrochloride and during the release of the drug up to 16 days. As comparison DC Bead™ microspheres were loaded with doxorubicin at the clinically used dosage of 25 mg drug/ml DC Bead™.\nDrug loading: DC Bead™ microspheres were conditioned in water for 10 min. Then the water was discarded and nemorubicin hydrochloride or doxorubicin was added.\nDrug release: DC™ microspheres with or without drug were incubated in Phosphate Buffer Saline (PBS) or human plasma from healthy donors up to 16 days. The size and spherical shape of DC Bead™ microspheres were measured at different time points.\nSize and appearance of nemorubicin hydrochloride-DC Bead™ microspheres during drug-loading and drug-elution were determined by a Leica DM IRB (Leica) microscope equipped by Evolution MP Color CCD Camera (Media Cybernatics). The analysis of size was performed by Image Pro Plus™ (Media Cybernatics). […] At least four field-images for samples were analyzed to support the statistical analysis."}, "[2]": {"test_system": "human mammary adenocarcinoma cells (MCF-7)", "experiment": "Cytotoxicity of elution fractions from DC Bead microspheres on MCF-7 cells (ATPLite)", "assay_type": "cell-based", "conditions": "MCF-7, 72 h treatment", "experimental": "(§1) The release of nemorubicin hydrochloride from DC Bead™ microspheres was evaluated in PBS and in human plasma. At the end of the loading time and at each elution point, loaded nemorubicin hydrochloride-DC Bead™ microspheres were washed by warm water and finally incubated in warm PBS or human plasma at 37° C.\nAt desiderate elution time supernatant was collected carefully by syringe, avoiding beads aspiration. Then solutions were filtered by 70 μm nylon filcon filter (BD Biosciences) to avoid carry-over contamination, collected in Eppendorf tubes and finally stored at −20° C. for further analysis.\nSamples were split for: • evaluation of the cytotoxicity of nemorubicin hydrochloride and doxorubicin against tumor cells (as dose able to inhibit cell growth by 50%; IC50). • evaluation of the released amount of nemorubicin hydrochloride and doxorubicin by HPLC-MS/UV analysis (the method used is reported in Example 2). In Vitro Antitumor Activity\nThe cytotoxic effect of elution fractions was investigated on human mammary adenocarcinoma cells (MCF-7, ECACC source). Cells were grown in E-MEM/Glutamax medium (Invitrogen), 10% FBS (EuroClone), and 1% Non-Essential AminoAcids (Invitrogen) and maintained at 37° C. at 5% CO2. For cytotoxicity test, cells were plated at density of 5,000 cells/well in 96-well plates (Corning) and grown for 24 h before treatment. Cells were treated for 72 h by raise dilutions of elution fractions. At the end of treatment, cells were incubated with TS substrate (ATPLite™). Plates were read for chemiluminescence (480/540 nm) by Perkin Elmer Envision™ plate reader.\nIC50 were calculated by LSW Data Analysis™ curve fitting. The IC50 value of nemorubicin hydrochloride and doxorubicin in the medium eluted from DC Bead™ microspheres was compared to that of standard nemorubicin hydrochloride or doxorubicin fresh solutions."}, "[3]": {"experiment": "Release of drug from DC Bead microspheres in human plasma", "assay_type": "physicochemical", "conditions": "37° C.", "experimental": "The measurements of nemorubicin hydrochloride in the elution medium were carried out with HPLC-MS/UV analysis performed by Finnigan MAT/LCQ Deca XP ion trap MS equipped with ESI ion source, directly connected to a Surveyor HPLC system (Thermo Electron Corporation). HPLC-MS/UV separations were set up on Phenomenex Gemini Phenyl, 3 μm, 50×4.6 mm by Acetate Buffer:Acetonitrile 1:9. UV detection was done at 480 nm and for ESI-MS analysis a heated capillary temperature at 275° C. and spray voltage at 4 KV was applied.\nas §1\nAt desiderate elution time supernatant was collected carefully by syringe, avoiding beads aspiration. Then solutions were filtered by 70 μm nylon filcon filter (BD Biosciences) to avoid carry-over contamination, collected in Eppendorf tubes and finally stored at −20° C. for further analysis. […]"}, "[4]": {"experiment": "Elution efficiency from HepaSphere microspheres (HPLC-MS/UV)", "assay_type": "physicochemical", "conditions": "up to 168 h", "experimental": "Nemorubicin hydrochloride (1 mg drug/ml HepaSphere™, 2.5 mg drug/ml HepaSphere™) and doxorubicin (1 mg drug/ml HepaSphere™, 2.5 mg drug/ml HepaSphere™, 25 mg drug/ml HepaSphere™) were mixed with HepaSphere™ microspheres (50-100 μm). After 20 minutes of incubation the elution efficiency of nemorubicin hydrochloride and doxorubicin was measured up to 168 h.\nAt desiderate elution time, supernatant was collected carefully by syringe, avoiding beads aspiration. Then solutions were collected in Eppendorf tubes and stored at −20° C. for further analysis.\nThe released amount of nemorubicin hydrochloride and doxorubicin was evaluated by HPLC-MS/UV analysis (the method used is reported in Example 2)."}},
  "data": [
    {"smiles": "COc1cccc2c1C(=O)c1c(O)c3c(c(O)c1C2=O)C[C@@](O)(C(=O)CO)C[C@@H]3O[C@H]1C[C@H](N)[C@H](O)[C@H](C)O1", "note": "[Doxorubicin, reference compound]", "values": [
      {"measurement": "size range of loaded microspheres (diameter)", "setting": "[1]", "value": "85-125 μm"},
      {"measurement": "IC50", "setting": "[2]; MCF7, 72 h, Standard (fresh drug solution)", "value": 250, "unit": "nM"},
      {"measurement": "IC50", "setting": "[2]; MCF7, 72 h, fraction eluted at 72 h", "value": 140, "unit": "nM"},
      {"measurement": "IC50", "setting": "[2]; MCF7, fraction eluted at 24 h", "value": 250, "unit": "nM"},
      {"measurement": "IC50", "setting": "[2]; MCF7, fraction eluted at 48 h", "value": 180, "unit": "nM"},
      {"measurement": "IC50", "setting": "[2]; MCF7, fraction eluted at 96 h", "value": 200, "unit": "nM"},
      {"measurement": "IC50", "setting": "[2]; MCF7, fraction eluted at 120 h", "value": 450, "unit": "nM"},
      {"measurement": "IC50", "setting": "[2]; MCF7, fraction eluted at 144 h", "value": 1500, "unit": "nM"},
      {"measurement": "IC50", "setting": "[2]; MCF7, fraction eluted from DC Bead microspheres at 1 h", "value": 300, "unit": "nM"},
      {"measurement": "total drug released", "setting": "[3]", "value": 2.5, "unit": "%"},
      {"measurement": "% total released drug", "setting": "[4]; Dose 1 mg drug/ml HepaSphere (50-100 μm)", "value": 7, "unit": "%"},
      {"measurement": "% total released drug", "setting": "[4]; Dose 2.5 mg drug/ml HepaSphere (50-100 μm)", "value": 4, "unit": "%"},
      {"measurement": "% total released drug", "setting": "[4]; Dose 25 mg drug/ml HepaSphere (50-100 μm)", "value": 35, "unit": "%"}
    ]}
  ]
}
